# Data reported in patent US20240326041A1, “MICROFLUIDIC INDUCTION OF RESEARCH BASED NEURAL INJURY” (Worcester Polytechnic Institute, priority 2023, published 2024).
# pIC50: −log10 of the molar value.
# Columns and labels:
# [1] = molecular target: hTRPV4 (Homo sapiens, UniProt Q9HBA0); details: commercially available TRPV4 antagonist, vendor description; cited from earlier work
# [2] = molecular target: rTRPV4 (Rattus norvegicus, UniProt Q9ERZ8); details: commercially available TRPV4 antagonist, vendor description; cited from earlier work
# [3] = system: C. elegans; test: Recovery of neural activity (AWA calcium imaging) after sonication-induced injury; type: in vivo; details: wild-type C. elegans, NAC-induced recovery
# Experimental: FIGS. 8A-8C show results of test substances for treatment of an injury induced by the microfluidic device of FIGS. 1-4. Referring to FIGS. 8A-8C, one approach to therapeutic and/or prophylactic neural treatment includes two chemical agents that are diluted to physiological concentrations and administered in liquid form to the test animals using their food. Drug compositions are applied for a series of several hours to allow the biological function of the composition to manifest. Animals are removed from drug administration and allowed to immobilize under anesthetic for a period of ˜60 minutes in a microfluidic device before being injured. […] The described action of the drug composition is to inhibit the ability of calcium influx channels to operate for a period of time before and during the injury, allowing later recovery of the neuron response when the action of the drug composition ceases.
# [4] = system: C. elegans; test: Behavioral state after sonication-induced traumatic injury in microfluidic device; type: in vivo; details: 2 hour pre-exposure to 1 mM NAC; initial behavioral data
# Experimental: To injure animals, a continuous flow of buffer fluid is pumped through a microfluidic device 120 having serpentine microchannels in a bath sonicator-induced cavitation field. Animals are trapped in the flow and directed through the cavitation field. Exposure time is determined by channel length and flow velocity. […] Animals are recovered on an agar plate 130 for further transfer and analysis using widefield or high-resolution microscopy, or encapsulated in hydrogel and assessed over time in presence of various pharmacological agents. […] A batch of test subjects is isolated and introduced via the buffer fluid 114 and suitable coupling 116, as depicted at step 404. The microfluidic device 120 including the post array 140 receives the test subjects 152-N, as shown at step 406. Computer-controlled bath sonication induces titratable cavitation conditions within a microfluidic post-array 140. […] Upon removal, animals may be assessed visually for behavioral state according to the following definitions: • Paralysis: movement phenotype characterized by no obvious gross bodily movement. • Twitch: movement phenotype characterized by shaking or convulsions of the body or a substantial part of the main body of the animal.
# Chain of hTRPV4 (Q9HBA0 whole entry): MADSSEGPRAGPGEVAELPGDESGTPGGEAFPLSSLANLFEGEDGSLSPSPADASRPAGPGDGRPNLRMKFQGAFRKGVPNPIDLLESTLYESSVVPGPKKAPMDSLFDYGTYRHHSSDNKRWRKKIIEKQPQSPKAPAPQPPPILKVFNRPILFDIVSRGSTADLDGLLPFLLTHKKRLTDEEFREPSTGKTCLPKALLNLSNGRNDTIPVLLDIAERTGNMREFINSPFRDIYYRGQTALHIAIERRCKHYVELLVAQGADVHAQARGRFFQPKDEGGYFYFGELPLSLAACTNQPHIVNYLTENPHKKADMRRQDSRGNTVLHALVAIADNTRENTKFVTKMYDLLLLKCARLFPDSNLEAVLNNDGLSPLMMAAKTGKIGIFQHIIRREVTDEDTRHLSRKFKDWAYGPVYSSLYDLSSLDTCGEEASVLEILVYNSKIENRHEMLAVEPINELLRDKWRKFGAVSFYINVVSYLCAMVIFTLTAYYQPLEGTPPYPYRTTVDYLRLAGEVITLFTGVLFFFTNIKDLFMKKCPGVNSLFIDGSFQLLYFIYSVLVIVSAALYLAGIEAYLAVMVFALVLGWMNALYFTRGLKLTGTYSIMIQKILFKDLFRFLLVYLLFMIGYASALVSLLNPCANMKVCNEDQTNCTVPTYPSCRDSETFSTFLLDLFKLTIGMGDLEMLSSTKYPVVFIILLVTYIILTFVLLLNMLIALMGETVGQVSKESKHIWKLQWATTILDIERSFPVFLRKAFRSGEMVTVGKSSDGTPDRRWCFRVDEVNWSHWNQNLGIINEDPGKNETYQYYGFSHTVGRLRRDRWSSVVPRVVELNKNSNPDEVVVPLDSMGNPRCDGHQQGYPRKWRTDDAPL
# Chain of rTRPV4 (Q9ERZ8 whole entry): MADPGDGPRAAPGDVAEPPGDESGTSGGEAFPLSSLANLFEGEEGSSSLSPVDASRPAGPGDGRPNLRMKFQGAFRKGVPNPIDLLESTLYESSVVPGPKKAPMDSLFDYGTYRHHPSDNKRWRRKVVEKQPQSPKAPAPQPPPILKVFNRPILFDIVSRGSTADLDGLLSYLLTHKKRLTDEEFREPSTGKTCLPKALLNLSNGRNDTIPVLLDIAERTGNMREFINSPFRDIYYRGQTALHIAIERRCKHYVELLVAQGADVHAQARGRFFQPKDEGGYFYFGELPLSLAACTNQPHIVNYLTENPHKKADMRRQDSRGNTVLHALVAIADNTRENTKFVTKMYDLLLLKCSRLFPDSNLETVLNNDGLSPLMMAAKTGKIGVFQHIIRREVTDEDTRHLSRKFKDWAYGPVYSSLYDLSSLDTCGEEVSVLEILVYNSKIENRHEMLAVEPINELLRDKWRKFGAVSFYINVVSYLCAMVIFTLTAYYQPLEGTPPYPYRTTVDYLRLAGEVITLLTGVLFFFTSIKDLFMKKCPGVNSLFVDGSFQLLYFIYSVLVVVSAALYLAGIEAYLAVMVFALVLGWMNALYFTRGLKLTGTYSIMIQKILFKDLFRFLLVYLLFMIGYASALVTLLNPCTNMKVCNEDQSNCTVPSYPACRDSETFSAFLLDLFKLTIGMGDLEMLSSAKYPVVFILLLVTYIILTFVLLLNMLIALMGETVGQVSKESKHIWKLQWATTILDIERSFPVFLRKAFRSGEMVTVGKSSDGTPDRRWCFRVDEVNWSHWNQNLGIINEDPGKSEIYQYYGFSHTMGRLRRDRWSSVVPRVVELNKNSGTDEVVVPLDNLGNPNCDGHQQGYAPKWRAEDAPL
SMILES,pIC50 [1],pIC50 [2],calcium transients on recovery after injury [3],behavioral vulnerability after injury [4]
O=C(NC1(c2ccccc2)CC1)c1c(CN2CCC(N3CCCCC3)CC2)c(-c2cccc(C(F)(F)F)c2)nc2cc(Br)ccc12 [GSK2193874],7.40,8.70,–,–
"CC(=O)N[C@@H](CS)C(=O)O [NAC, N-acetyl-L-cysteine]",–,–,produces calcium transients similar to ‘osm’ mutants,lessens behavioral vulnerability
